Reference: ChEMBL document CHEMBL1154680, “Alkyl and dialkylaminoethyl derivatives of 5-amino-2-azabicyclo[3.2.2]nonanes and their antiplasmodial and antitrypanosomal activities” (Eur J Med Chem, 2010)

Tests used:
[1] = Selectivity index, ratio of IC50 for rat L6 cells to IC50 for Trypanosoma brucei rhodesiense STIB 900; assay type: toxicity, cell-based; conditions: read-out: Ratio IC50
[2] = Selectivity index, ratio of IC50 for rat L6 cells to IC50 for chloroquine and pyrimethamine-resistant Plasmodium falciparum K1; assay type: toxicity, cell-based; conditions: read-out: Ratio IC50
L6 = experiment: Cytotoxicity against rat L6 cells; assay type: cell-based
Plasmodium falciparum = experiment: Antiplasmodial activity against chloroquine and pyrimethamine-resistant Plasmodium falciparum K1 by microplate assay; assay type: functional, organism-based
[3] = test system: Trypanosoma brucei rhodesiense; experiment: […] activity against Trypanosoma brucei rhodesiense STIB 900 by microplate assay; assay type: functional, organism-based

SMILES	selectivity ratio [1]	selectivity ratio [2]	IC50 (L6) [nM]	IC50 (Plasmodium falciparum) [nM]	IC50 [3] [nM]
Clc1ccc(C2CC3(N4CCCCC4)CCNC2C(c2ccc(Cl)cc2)C3)cc1 (stereo not given)	125	17.6	–	–	–
Clc1ccc(C2CC3(N4CCCC4)CCNC2C(c2ccc(Cl)cc2)C3)cc1 (stereo not given)	152	40.2	–	–	–
CN(C)C12CCNC(C(c3ccc(Cl)cc3)C1)C(c1ccc(Cl)cc1)C2 (stereo not given)	143	21.3	–	–	–
CN(C)C12CCN(Cc3ccccc3)C(C(c3ccccc3)C1)C(c1ccccc1)C2 (racemic)	5.2	12.2	7330	600	1410
c1ccc(CN2CCC3(N4CCCC4)CC(c4ccccc4)C2C(c2ccccc2)C3)cc1 (racemic)	5.17	5.67	4650	820	900
Clc1ccc(C2CC3(N4CCCC4)CCN(CCc4ccccc4)C2C(c2ccc(Cl)cc2)C3)cc1 (racemic)	3.7	8.12	4220	520	1140
CN1CCC2(N3CCCC3)CC(c3ccc(Cl)cc3)C1C(c1ccc(Cl)cc1)C2 (racemic)	21	8.44	7340	870	350
c1ccc(CCN2CCC3(N4CCCC4)CC(c4ccccc4)C2C(c2ccccc2)C3)cc1 (racemic)	3.97	3.84	3690	960	930
CN1CCC2(N(C)C)CC(c3ccccc3)C1C(c1ccccc1)C2 (racemic)	61.9	–	109000	–	1760
CN(C)C12CCN(CCN3CCCC3)C(C(c3ccccc3)C1)C(c1ccccc1)C2 (racemic)	60.9	136	80400	590	1320
c1ccc(CCN2CCC3(N4CCCCC4)CC(c4ccccc4)C2C(c2ccccc2)C3)cc1 (racemic)	7	11.8	8400	710	1200
CN1CCC2(N3CCCC3)CC(c3ccccc3)C1C(c1ccccc1)C2 (racemic)	49.5	53.5	92100	1720	1860
CN(C)C12CCN(CCc3ccccc3)C(C(c3ccccc3)C1)C(c1ccccc1)C2 (racemic)	8.07	38.3	4600	120	570
CN(C)C12CCN(CCc3ccccc3)C(C(c3ccc(Cl)cc3)C1)C(c1ccc(Cl)cc1)C2 (racemic)	3.66	7.23	3400	470	930
c1ccc(C2CC3(N4CCCC4)CCN(CCN4CCCC4)C2C(c2ccccc2)C3)cc1 (racemic)	17.2	116	58200	500	3380
c1ccc(C2CC3(N4CCCCC4)CCN(CCN4CCCC4)C2C(c2ccccc2)C3)cc1 (racemic)	6.09	1690	156000	92	25600
Clc1ccc(C2CC3(N4CCCCC4)CCN(CCc4ccccc4)C2C(c2ccc(Cl)cc2)C3)cc1 (racemic)	4.24	10.8	7890	730	1860
C[C@@H]1CC[C@H]2[C@@H](C)C(=O)O[C@@H]3O[C@@]4(C)CC[C@@H]1[C@]32OO4 [ARTEMISININ]	–	–	–	6.4	–
